Experimental data from patent publication US20250386822A1, “Microcapsules controlling the diffusion of an active organic compound” (KAPSERA, priority 2022, published 2025).

Columns and labels:
[1] = Pheromone diffusion duration by SPME pre-concentration and GCMS, closed temperature-controlled chamber (Example 1); format: physicochemical; conditions: pine processionary pheromone; paraffin oil core, 1% pheromone by weight
Excerpt: FIG. 1: This graph represents the abundance of the main compound of the non-encapsulated pheromone after preconcentration using the Solid Phase Micro-Extraction (SPME) technique, separation of the pheromone compounds by gas chromatography and detection by mass spectrometry (GCMS) in a closed temperature-controlled chamber. FIG. 2: This graph represents the abundance of the main compound of the encapsulated pheromone after preconcentration using the Solid Phase Micro-Extraction (SPME) technique, separation of the pheromone compounds by gas chromatography and detection by mass spectrometry (GCMS) in a closed temperature-controlled chamber. An analytical method was developed to detect the pheromone's main compound. The low quantities of analytes led to the choice of a pre-concentration method known as Solid Phase Micro-Extraction (SPME) and Gas Chromatography-Mass Spectrometry (GCMS).

[2] = Closed system: study of thermodynamic equilibrium, SPME-GC/MS in sealed 20 mL flasks (Example 2); format: physicochemical; conditions: closed 20 mL flask; European grapevine moth pheromone
Procedure: In order to establish the diffusion profiles of the samples at short times and to obtain initial information on any differences between the capsules, a study was carried out in a closed system. The experiment consists of introducing the samples into 20 mL hermetically sealed flasks and following the evolution of the quantity extracted by the SPME fibre over time, until equilibrium is reached. Measurements were initially taken over short periods (one measurement every 45 minutes, corresponding to the analysis time) and then, once the maximum concentration had been reached, measurements were taken at longer intervals to ensure that equilibrium had been reached (one measurement every 2.5 hours). These tests were carried out using the European grapevine moth pheromone, (E)-7-(Z)-9-dodecadienyl acetate (C14H24O2).

duration of the pheromone's diffusion [1] | time until equilibrium is reached [2] | SMILES
less than 10 days |  | CC/C=C\C#CCCCCCCCCCCOC(C)=O [Example 1 non-encapsulated pheromone, Z-13-hexadecen-11-yn-1-yl acetate]
 | > 50 h | CC/C=C\C=C\CCCCCCOC(C)=O [Example 2 non-encapsulated pheromone, (E)-7-(Z)-9-dodecadienyl acetate]
